Measurements reported in ChEMBL document CHEMBL5465560, “Selectivity Literature for EUbOPEN Chemogenomic Library” (2024).

Assays:
[1] = molecular target: T1, Interleukin-1 receptor-associated kinase 4 (Homo sapiens) (UniProt Q9NWZ3); test: Selectivity interaction (KinomeScan (DiscoverX)) EUB0000666a IRAK4; settings: at 10 µM
T1 sequence (whole entry): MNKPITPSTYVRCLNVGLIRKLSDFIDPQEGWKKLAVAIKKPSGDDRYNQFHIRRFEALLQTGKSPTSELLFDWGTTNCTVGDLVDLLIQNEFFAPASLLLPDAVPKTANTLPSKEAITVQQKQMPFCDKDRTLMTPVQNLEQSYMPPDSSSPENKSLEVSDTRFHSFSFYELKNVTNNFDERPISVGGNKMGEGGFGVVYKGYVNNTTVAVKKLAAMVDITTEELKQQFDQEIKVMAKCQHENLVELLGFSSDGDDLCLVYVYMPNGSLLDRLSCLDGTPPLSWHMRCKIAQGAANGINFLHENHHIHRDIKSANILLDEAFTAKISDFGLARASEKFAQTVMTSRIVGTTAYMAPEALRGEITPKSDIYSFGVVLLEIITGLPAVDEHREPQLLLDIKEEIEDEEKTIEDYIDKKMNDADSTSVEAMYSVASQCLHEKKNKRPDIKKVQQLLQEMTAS

[2] = molecular target: Serine/threonine-protein kinase 16 (Homo sapiens, UniProt O75716); test: Selectivity interaction (KinomeScan (DiscoverX)) EUB0000666a STK16; settings: at 10 µM
Chain of Serine/threonine-protein kinase 16 (O75716 whole entry): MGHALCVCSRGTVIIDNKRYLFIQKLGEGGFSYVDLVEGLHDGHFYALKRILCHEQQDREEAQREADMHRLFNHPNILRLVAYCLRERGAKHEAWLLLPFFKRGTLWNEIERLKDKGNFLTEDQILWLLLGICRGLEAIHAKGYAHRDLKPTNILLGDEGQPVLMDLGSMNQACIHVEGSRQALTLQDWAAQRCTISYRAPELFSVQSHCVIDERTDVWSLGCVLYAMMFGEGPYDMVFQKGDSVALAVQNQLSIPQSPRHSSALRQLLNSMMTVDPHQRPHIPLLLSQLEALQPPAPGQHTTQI

[3] = molecular target: Ribosomal protein S6 kinase alpha-2 (Homo sapiens) (UniProt Q15349); settings: at 10 µM
[4] = molecular target: Serine/threonine-protein kinase 38 (Homo sapiens) (UniProt Q15208); test: Selectivity interaction (ActivX KiNativ screen (kinase selectivity in THP-1 cell lysates)) EUB0000639a STK38; type: subcellular; settings: lysate, at 0.04 µM
Chain of Serine/threonine-protein kinase 38 (Homo sapiens) (Q15208 2-465 limits assumed): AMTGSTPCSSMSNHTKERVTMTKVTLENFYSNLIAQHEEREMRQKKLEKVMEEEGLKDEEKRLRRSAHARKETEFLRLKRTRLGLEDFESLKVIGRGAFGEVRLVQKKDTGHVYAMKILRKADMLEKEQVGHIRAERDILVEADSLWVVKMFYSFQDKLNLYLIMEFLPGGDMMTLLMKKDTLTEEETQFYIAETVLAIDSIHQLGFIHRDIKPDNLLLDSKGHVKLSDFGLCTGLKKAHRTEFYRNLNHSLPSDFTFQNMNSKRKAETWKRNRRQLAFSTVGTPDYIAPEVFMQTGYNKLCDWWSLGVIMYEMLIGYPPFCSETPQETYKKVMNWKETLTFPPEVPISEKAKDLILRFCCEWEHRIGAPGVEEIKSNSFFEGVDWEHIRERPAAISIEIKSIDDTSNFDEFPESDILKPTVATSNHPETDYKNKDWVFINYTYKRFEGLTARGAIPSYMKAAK

[5] = molecular target: Vascular endothelial growth factor receptor 2 (Homo sapiens, UniProt P35968); test: Selectivity interaction (Kinase panel (enzymatic assay)) EUB0000595a KDR
Chain of Vascular endothelial growth factor receptor 2 (P35968 whole entry): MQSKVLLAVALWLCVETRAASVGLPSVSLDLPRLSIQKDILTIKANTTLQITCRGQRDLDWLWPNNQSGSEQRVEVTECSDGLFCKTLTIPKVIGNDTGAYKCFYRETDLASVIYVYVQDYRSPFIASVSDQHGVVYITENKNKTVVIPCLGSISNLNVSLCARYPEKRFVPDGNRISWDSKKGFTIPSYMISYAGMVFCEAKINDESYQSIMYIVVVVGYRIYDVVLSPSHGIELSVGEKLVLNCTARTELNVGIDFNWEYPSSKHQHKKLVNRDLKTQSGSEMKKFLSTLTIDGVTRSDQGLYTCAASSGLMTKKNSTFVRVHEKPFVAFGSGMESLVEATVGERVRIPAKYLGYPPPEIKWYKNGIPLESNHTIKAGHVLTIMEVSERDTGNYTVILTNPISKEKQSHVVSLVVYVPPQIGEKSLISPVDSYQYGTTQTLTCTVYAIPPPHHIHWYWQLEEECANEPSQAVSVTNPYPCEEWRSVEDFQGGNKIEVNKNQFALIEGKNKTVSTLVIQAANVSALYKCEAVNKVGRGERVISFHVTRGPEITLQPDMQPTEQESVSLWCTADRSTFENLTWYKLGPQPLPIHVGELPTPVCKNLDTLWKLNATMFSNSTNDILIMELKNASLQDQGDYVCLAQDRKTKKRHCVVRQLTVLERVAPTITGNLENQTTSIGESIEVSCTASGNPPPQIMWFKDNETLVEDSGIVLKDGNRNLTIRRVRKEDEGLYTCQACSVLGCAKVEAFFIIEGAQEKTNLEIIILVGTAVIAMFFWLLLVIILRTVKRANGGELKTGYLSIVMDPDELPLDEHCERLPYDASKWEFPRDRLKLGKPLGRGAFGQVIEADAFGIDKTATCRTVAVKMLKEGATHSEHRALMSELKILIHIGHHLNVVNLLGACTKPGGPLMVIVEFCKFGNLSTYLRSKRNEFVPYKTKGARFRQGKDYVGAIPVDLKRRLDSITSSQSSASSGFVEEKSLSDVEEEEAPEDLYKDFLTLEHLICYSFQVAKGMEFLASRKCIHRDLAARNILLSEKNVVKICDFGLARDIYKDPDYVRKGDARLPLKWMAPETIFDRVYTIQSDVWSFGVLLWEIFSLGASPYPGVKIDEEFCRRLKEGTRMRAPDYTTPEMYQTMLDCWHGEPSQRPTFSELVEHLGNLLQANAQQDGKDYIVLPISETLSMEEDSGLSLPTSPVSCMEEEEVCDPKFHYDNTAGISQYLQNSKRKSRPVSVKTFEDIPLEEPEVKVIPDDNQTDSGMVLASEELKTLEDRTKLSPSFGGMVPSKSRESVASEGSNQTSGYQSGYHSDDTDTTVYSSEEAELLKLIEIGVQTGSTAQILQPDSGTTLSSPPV

[6] = molecular target: Serine/threonine-protein kinase 38 (Homo sapiens) (UniProt Q15208); test: Selectivity interaction (KinomeScan (DiscoverX)) EUB0001049a STK38; settings: at 1 µM
[7] = molecular target: Phosphatidylinositol 4-phosphate 5-kinase type-1 alpha (Homo sapiens) (UniProt Q99755); test: Selectivity interaction (KinomeScan (DiscoverX)) EUB0001049a PIP5K1A; settings: at 1 µM
[8] = molecular target: T2, Alpha-2C adrenergic receptor (Homo sapiens) (UniProt P18825); test: Selectivity interaction (Panel of kinases, GPCRs, ion channels and transporters (enzymatic assay)) EUB0000223bCl ADRA2C
T2 sequence (whole entry): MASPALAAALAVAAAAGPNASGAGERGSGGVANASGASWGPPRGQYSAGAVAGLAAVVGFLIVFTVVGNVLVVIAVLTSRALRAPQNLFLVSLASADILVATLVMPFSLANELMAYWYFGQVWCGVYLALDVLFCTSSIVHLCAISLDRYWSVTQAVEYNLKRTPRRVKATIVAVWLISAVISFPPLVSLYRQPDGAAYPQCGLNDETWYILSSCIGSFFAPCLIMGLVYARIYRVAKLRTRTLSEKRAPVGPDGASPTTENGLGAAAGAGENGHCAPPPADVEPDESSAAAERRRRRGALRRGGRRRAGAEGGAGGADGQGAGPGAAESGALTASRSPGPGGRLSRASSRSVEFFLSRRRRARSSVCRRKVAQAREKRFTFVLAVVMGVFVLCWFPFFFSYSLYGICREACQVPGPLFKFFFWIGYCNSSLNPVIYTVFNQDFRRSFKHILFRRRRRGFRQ

[9] = molecular target: Potassium voltage-gated channel subfamily A member 5 (Homo sapiens) (UniProt P22460); test: Selectivity interaction (Panel of kinases, GPCRs, ion channels and transporters (enzymatic assay)) EUB0000223bCl KCNA5
Chain of Potassium voltage-gated channel subfamily A member 5 (Homo sapiens) (P22460 whole entry): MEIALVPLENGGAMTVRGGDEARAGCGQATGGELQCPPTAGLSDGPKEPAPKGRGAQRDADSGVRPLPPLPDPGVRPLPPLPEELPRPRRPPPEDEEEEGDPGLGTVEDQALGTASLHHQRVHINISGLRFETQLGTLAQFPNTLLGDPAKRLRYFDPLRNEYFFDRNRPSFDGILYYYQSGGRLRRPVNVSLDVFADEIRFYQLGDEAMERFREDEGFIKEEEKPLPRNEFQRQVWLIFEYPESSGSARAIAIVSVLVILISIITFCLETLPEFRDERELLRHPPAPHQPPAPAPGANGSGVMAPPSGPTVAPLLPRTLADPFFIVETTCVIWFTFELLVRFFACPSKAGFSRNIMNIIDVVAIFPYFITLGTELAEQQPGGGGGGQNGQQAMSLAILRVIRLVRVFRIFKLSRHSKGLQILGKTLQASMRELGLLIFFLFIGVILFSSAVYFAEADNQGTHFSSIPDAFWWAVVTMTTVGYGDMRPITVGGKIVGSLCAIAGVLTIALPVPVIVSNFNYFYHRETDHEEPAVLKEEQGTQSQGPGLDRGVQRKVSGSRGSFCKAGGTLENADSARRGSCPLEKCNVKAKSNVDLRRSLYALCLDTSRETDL

[10] = test system: Tyrosine-protein kinase ABL1 (Homo sapiens), P00519 [F317I]; test: Selectivity interaction (KinomeScan (DiscoverX)) EUB0000045b ABL1; settings: at 1 µM
Chain of Tyrosine-protein kinase ABL1 (Homo sapiens), P00519 [F317I] (P00519 whole entry F317I, canonical isoform): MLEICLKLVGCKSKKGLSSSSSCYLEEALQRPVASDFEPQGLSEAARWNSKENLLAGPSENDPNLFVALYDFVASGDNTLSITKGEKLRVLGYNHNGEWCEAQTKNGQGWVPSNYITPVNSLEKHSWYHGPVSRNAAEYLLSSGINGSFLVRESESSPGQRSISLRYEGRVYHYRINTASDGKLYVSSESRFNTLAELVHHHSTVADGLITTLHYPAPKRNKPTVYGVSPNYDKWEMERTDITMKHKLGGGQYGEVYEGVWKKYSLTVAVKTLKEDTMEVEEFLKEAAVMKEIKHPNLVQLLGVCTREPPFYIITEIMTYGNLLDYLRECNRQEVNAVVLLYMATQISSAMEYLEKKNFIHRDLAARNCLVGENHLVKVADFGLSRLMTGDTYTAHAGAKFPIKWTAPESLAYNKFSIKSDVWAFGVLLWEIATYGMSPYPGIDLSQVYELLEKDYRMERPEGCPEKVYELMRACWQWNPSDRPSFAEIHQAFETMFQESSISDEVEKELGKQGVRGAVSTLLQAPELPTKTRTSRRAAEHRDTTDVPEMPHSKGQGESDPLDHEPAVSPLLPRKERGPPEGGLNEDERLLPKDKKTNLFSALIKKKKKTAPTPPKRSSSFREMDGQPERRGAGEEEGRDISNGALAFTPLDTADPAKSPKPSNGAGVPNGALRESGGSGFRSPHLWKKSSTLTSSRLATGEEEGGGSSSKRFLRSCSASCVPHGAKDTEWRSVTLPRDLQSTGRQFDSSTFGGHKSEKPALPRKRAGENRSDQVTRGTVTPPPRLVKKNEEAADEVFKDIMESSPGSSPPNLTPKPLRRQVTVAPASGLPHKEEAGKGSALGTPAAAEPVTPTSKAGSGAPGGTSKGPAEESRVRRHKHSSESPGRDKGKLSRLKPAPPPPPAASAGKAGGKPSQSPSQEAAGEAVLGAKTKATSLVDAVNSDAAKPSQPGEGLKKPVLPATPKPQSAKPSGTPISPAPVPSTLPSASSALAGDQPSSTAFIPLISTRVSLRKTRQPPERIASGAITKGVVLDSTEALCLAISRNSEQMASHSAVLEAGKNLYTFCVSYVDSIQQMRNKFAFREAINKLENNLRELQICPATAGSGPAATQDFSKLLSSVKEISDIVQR

[11] = molecular target: Phosphorylase b kinase gamma catalytic chain, skeletal muscle/heart isoform (Homo sapiens) (UniProt Q16816); test: Selectivity interaction (KinomeScan (DiscoverX)) EUB0000229b PHKG1; settings: at 10 µM
Chain of Phosphorylase b kinase gamma catalytic chain, skeletal muscle/heart isoform (Homo sapiens) (Q16816 whole entry, looked up, canonical isoform): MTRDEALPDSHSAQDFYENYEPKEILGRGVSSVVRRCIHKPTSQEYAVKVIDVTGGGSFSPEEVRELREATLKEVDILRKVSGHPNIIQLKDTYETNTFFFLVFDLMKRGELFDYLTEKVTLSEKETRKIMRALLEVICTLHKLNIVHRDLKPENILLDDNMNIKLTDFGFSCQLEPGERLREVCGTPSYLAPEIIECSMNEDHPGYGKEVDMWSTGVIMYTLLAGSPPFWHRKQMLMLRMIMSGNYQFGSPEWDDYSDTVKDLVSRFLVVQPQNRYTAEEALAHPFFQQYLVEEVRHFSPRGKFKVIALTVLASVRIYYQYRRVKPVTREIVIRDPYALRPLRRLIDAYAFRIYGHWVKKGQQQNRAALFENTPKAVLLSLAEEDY

[12] = molecular target: T3, Atypical kinase COQ8B, mitochondrial (Homo sapiens) (UniProt Q96D53); test: Selectivity interaction (KinomeScan (DiscoverX)) EUB0000092b ADCK4; settings: at 10 µM
T3 sequence (whole entry): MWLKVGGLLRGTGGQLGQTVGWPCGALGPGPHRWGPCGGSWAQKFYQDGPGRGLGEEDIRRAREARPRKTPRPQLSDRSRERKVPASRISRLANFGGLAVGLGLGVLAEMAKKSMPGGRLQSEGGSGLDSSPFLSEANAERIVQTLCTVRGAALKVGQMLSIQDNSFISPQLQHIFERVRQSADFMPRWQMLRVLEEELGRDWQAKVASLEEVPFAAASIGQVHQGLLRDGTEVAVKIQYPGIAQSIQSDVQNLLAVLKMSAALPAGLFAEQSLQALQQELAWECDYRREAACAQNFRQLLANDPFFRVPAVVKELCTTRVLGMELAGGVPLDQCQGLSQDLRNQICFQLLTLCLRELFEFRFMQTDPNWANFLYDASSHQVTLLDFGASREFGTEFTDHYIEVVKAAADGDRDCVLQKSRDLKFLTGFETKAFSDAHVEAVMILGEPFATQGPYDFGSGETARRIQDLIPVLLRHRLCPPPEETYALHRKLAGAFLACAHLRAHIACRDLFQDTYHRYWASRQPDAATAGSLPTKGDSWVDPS

[13] = molecular target: Cyclin-dependent kinase 8 (Homo sapiens, UniProt P49336); test: Selectivity interaction (ActivX KiNativ screen (ex vivo kinase selectivity in human PBMCs)) EUB0001619a CDK8; type: cell-based; settings: PBMC, at 1 µM
Chain of Cyclin-dependent kinase 8 (P49336 whole entry): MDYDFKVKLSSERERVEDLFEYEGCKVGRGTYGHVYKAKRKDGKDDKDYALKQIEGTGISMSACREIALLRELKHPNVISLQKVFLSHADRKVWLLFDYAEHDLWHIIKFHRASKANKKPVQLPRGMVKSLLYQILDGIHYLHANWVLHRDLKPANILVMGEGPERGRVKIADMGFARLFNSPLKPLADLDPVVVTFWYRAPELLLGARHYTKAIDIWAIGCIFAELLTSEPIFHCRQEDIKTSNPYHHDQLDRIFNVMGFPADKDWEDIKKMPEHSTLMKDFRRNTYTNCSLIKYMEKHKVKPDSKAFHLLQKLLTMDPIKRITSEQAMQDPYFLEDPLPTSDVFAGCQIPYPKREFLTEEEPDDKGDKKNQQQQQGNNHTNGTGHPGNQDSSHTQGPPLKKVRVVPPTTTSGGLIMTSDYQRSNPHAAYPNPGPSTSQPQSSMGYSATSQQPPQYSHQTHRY

Compound: O=C(NOC[C@H](O)CO)c1ccc(F)c(F)c1Nc1ccc(I)cc1F
- % of control [1]: 100%
- % of control [2]: 99%

Compound: CCN(CC)CCCCNc1ncc2cc(-c3cc(OC)cc(OC)c3)c(NC(=O)NC(C)(C)C)nc2n1
- % of control [3]: 100%

Compound: CC[C@@H]1[C@H](F)C(=O)N[C@@H]1COc1nccc2cc(C(N)=O)c(OC)cc12 [ZIMLOVISERTIB]
- % of inhibition [4]: -3.9%

Compound: COCC(=O)NC/C=C/c1ccc2ncnc(Nc3ccc(Oc4ccc(C)nc4)c(C)c3)c2c1 [CP-724714]
- IC50 [5]: > 10 µM

Compound: COc1cc(Nc2nc(C)cc(-c3cnn4nc(OC)ccc34)n2)cc(C(F)(F)F)c1
- % of control [6]: 90%
- % of control [7]: 81%

Compound: COc1cc(C(=O)N2CC[C@@H](O)[C@@H](N)C2)cc2nc(-c3cc4ccccc4n3CC3CC3)n(C)c12
- pXC50 [8]: < 4.5 M
- pXC50 [9]: < 4.8 M

Compound: C=CC(=O)Nc1cc(-n2c(=O)ccc3cnc4ccc(-c5ccc(NS(C)(=O)=O)cc5)cc4c32)ccc1C
- % of control [10]: 81%

Compound: COc1cc(N(C)c2ccnc3ccc(C(F)(F)F)cc23)cc(OC)c1OC
- % binding [11]: 100%

Compound: CCC(=O)N1CCN(c2ccc(-n3c(=O)ccc4cnc5ccc(-c6cnc7ccccc7c6)cc5c43)cc2C(F)(F)F)CC1
- % of control [12]: 15%

Compound: N#Cc1cccc(-c2c[nH]c3ncnc(N4CCOCC4)c23)c1
- % of inhibition [13]: 36%
